Measured values taken from US8039670B2, “Analogs of alpha galactosyceramide and uses thereof” (Ludwig Institute for Cancer Research, priority 2005, dated 2011).

Tests used:
[1] = biological target: T1, human invariant Vα24^+/Vβ11^+ TCR binding to hCD1d-lipid complex (Homo sapiens, UniProt P15813); assay: Surface plasmon resonance (Biacore) of soluble iNKT TCR binding to hCD1d monomers loaded with analogs; conditions: for Kd: equilibrium binding, read-out: Kd of the TCR binding to the monomer
T1 construct: soluble human CD1d molecules; made in house
Description: Affinity and kinetics of iNKT TCR binding to hCD1d complexed with α-GalCer or OCH. Increasing concentrations from 0.4 μM to 194 μM (two-fold dilution) of iNKT TCR were injected for 5 seconds over the indicated hCD1d-GSL complexes. The binding responses of 5 concentrations are shown superimposed. The panels on the right show binding response at equilibrium.
The affinities of a soluble NKT cell TCR for human CD1d molecules refolded with different analogs of α-GalCer were measured. Equilibrium binding and kinetic measurements respectively were made for α-GalCer (A and B), threitolceramide (C and D), 4S-threitolceramide (E and F), 4R-threitolceramide (G and H). The Kd values (μM) were calculated from equilibrium binding. The Kon values shown were calculated from Koff and Kd.
We then assessed whether the length of the acyl and sphingosine chains could affect the affinity of iNKT TCR binding to glycolipid-CD1d complex. We refolded Vα24 and Vβ11 chains of the iNKT TCR as previously described (Gadola, Koch et al, J Exp Med, 2006, 203; 699-710) and used the purified and refolded iNKT TCR in surface plasmon resonance studies against immobilized biotinylated CD1d monomers loaded with either α-GalCer or OCH.
To characterize the affinity of analogs of α-GalCer, biotinylated hCD1d monomers were generated using previously described protocols (Karadimitris, Gadola et al, Proc Natl Acad Sci USA, 2001, 98; 3294-8) bound to the different analogs. Surface plasmon resonance (Biacore) analysis was performed using a soluble disulphide-linked human invariant Vα24^+/Vβ11^+ TCR (Gadola, Koch et al, J Exp Med, 2006, 203; 699-710) to measure the equilibrium dissociation constants (Kd) of binding of the TCR to different monomers (FIG. 3).

E.G7-OVA tumour cells = assay: Prophylactic challenge with E.G7-OVA tumour cells after co-injection with OVA; assay type: in vivo, C57BL/6 mice; conditions: injected with OVA, challenge 7 days later with 1×10^6 E.G7-OVA s.c.
Description: (A) C57BL/6 mice were co-injected with 1 μg α-GalCer or analog and 800 μg OVA. 6 days later blood samples taken from the tail vein were stained directly ex vivo with fluorescent […]-K^b tetramers and an anti-CD8 antibody and analyzed by flow cytometry. Data are shown as tetramer positive cells as a percentage of CD8^+ cells. (B) 7 days after injection, the mice were challenged in a prophylactic setting with 1×10^6 E.G7-OVA tumour cells s.c. and the size of the tumour monitored over subsequent days.

human DC = assay: DC maturation in co-culture of human DC and iNKT cells (flow cytometry CD83, CD86, CD38); assay type: cell-based; conditions: for DC maturation (upregulation of CD83, CD86 and CD38): human DC with iNKT cell clone, 24 hours; for concentration inducing maximal DC maturation: titration on DC, 48 h
Description: Different analogs of α-GalCer as indicated or LPS were added to co-cultures of human DC and iNKT cells. (A) Maturation of the DC was assessed after 40 h, gating on CD11c positive cells. Histograms indicate the CD83 and CD86 profiles of DC from different treatments; the percentages indicate the percentage of CD83hi mature DC and the numbers in parenthesis, the mean fluorescence intensity of the population contained within the labeled gate. DC and iNKT cells were co-cultured in the presence of different analogs of α-GalCer for 24 hours. Supernatants were analyzed using ELISA for the presence of (B) IL-12p40 released by the DC and (C) IFN-γ from the iNKT cells. […] Cells were co-cultured in the presence of the indicated concentration of analog and the percentages of DC with increased CD83/CD80 are shown. […] Viability of α-GalCer or analog-pulsed DC was assessed after 40 h co-culture in the presence of iNKT cells by flow cytometry. Cells were stained with propidium iodide and the percentage of live CD11c gated cells remaining in the culture are shown.
Human monocyte-derived DC were pulsed with 150 ng of different inositol analogs and co-cultured with iNKT cells for 24 h. […] Numbers indicate the mean fluorescence intensity of the histogram gated on CD11c^+ cells.
Immature human DC were cultured in the presence of a human iNKT cell clone with or without analogs or vehicle at different concentrations.
To compare the functions of high affinity α-GalCer, intermediate affinity threitolceramide with the known, low affinity analog OCH, the three compounds were titrated onto DC and used to present to iNKT cells. Maturation of DC and DC viability were examined after 48 h.

[2] = tested on: Melan A-specific CD8^+ T cells; assay: Expansion of Melan-A26-35 specific CD8+ T cells in human PBMC/PBL cultures (tetramer); assay type: cell-based; conditions: for stimulation of antigen specific CTL responses in vitro: Example B, day 10, compared with αGal-Cer; for expansion of Melan-A26-35 specific T cells: human PBMC/PBL, FIG. 8
Description: Flow cytometry of day 10-15 cultures of PBMCs co-cultured with autologous irradiated APCs, pulsed with Melan-A26-35 peptide were stained with the tetrameter and anti-CD8^+-FITC.
In these experiments, T cell expansion was measured, by pulsing human DCs from PBLs with 100 nM of the known, immunogenic peptide MelanA26-35, […]. The peptide was added to the DCs together with syngeneic PBLs from the same donor. To detail these experiments more fully, samples of DCs were irradiated with 3000 rads followed by a 3 hour pulse with the peptide, in serum free medium.
The cells were then washed thoroughly and incubated with autologous, PBLs, at a 1:10 ratio, in RPMI 1640/5% human serum. Recombinant human IL-2 was added at 10 U/ml from day 4 to day 7. At day 10, following the addition of the PBLs, cells were analyzed. Cultured cells were stained with anti-CD8 and A2/MelanA25-35 tetramer. The percentage of MelanA specific CD8 T cells out of total CD8 positive cells was measured by FACS analysis.

[3] = tested on: OVA specific IgG antibodies; assay: Example D: OVA specific IgG antibodies in serum of immunized mice (ELISA); assay type: in vivo; conditions: ten days following immunization
Description: OVA protein coated ELISA plates, were prepared, using well known methods. Then, blood samples were taken, ten days following immunization, and serum was prepared.
The samples were taken from mice that had been immunized with OVA only, OVA and Compound 1, arabinitol ceramide, OVA and αGal-Cer, or OVA and Compound 2, glycerol ceramide. Additionally, mice were immunized with each of these schedules with MPL added. Serum IgG titers were measured by adding serial dilutions of mouse serum were detected using horseradish peroxidase (HRP) conjugated α-mouse IgG.

SMILES: CCCCCCCCCCCCCCCCCCCCCCCCCC(=O)N[C@@H](COC[C@H](O)[C@@H](O)CO)[C@H](O)[C@H](O)CCCCCCCCCCCCCC [Compound 3, Threitol Ceramide]
- Kd [1]: 5.78 µM
- rate of dissociation (Koff) between the TCR and the monomer ([1]; kinetic measurement): 1.04 s⁻¹
- tumour growth (E.G7-OVA tumour cells): little or no tumour growth
- DC maturation (upregulation of CD83, CD86 and CD38) (human DC): more potent than glycerolceramide and arabinitolceramide
- concentration inducing maximal DC maturation (human DC): 67 ng/mL
- stimulation of antigen specific CTL responses in vitro [2]: more potent stimulators of antigen specific CTL responses, in vitro, than αGal-Cer
- expansion of Melan-A26-35 specific T cells ([2]; listed as threitol-ceramide): superior than glycerol-ceramide
- expansion of Melan-A26-35 specific T cells ([2]; listed as threitolceramide): at least as effective as with DC pulsed with α-GalCer

SMILES: CCCCCCCCCCCCCCCCCCCCCCCCCC(=O)N[C@@H](CO[C@H]1OC(CO)[C@H](O)C(O)C1O)[C@H](O)[C@H](O)CCCCCCCCCCCCCC (stereo partly drawn) [α-GalCer, α galactosylceramide, reference compound]
- Kd [1]: 1.29 µM
- koff ([1]; kinetic measurement, read-out: rate of dissociation (Koff) between the TCR and the monomer): 0.37 s⁻¹
- tumour growth (E.G7-OVA tumour cells): little or no tumour growth
- DC maturation (upregulation of CD83, CD86 and CD38) (human DC): significant upregulation of all the markers examined
- concentration inducing maximal DC maturation (human DC): 0.8 ng/mL
- OVA specific antibody response, adjuvant effect compared with MPL [3]: more effective as adjuvants than MPL

SMILES: CCCCCCCCCCCCCCCCCCCCCCCCCC(=O)N[C@@H](COC[C@@H](O)CO)[C@H](O)[C@H](O)CCCCCCCCCCCCCC [Compound 2, Glycerol Ceramide]
- stimulation of antigen specific CTL responses in vitro [2]: more potent stimulators of antigen specific CTL responses, in vitro, than αGal-Cer
- OVA specific antibody response, adjuvant effect compared with MPL [3]: less effective than MPL whilst still producing OVA specific antibodies
